This note sets out measurements from patent publication EP0449699A2, “Pyrazole derivatives as angiotensin II-receptor antagonists, process for their preparation and pharmaceutical compositions containing them” (LABORATOIRES UPSA, priority 1990, dated 1991).

The assay concerns récepteurs surrénaliens de l'angiotensine II. Put plainly: Displacement of radioligand [125I]-SIAII specifically bound to adrenal angiotensin II receptors (rat adrenal homogenate). Type of assay: binding. To be noted: 60 min, 25°C. An excerpt: L'affinité des produits des exemples pour les récepteurs de l'angiotensine II est évaluée par technique de déplacement d'un radioligand spécifiquement fixé sur les récepteurs surrénaliens de l'angiotensine Il, chez le rat.
Une aliquote d'un homogénat de surrénales de rat incube en présence d'une concentration unique de [^125I]-SIAII (Sar^1, Tyr^4, Ile^8 - angiotensine II), antagoniste des récepteurs de l'angiotensine II, et de deux concentrations d'agents compétiteurs (10^-5 M, 10-^7 M) durant 60 min à 25°C.
La réaction est achevée par ajout de tampon, puis rapide filtration à travers des filtres de papier de verre. La liaison non spécifique est déterminée en présence d'angiotensine Il.
Les résultats sont exprimés, pour les concentrations testées, en pourcentage de déplacement du radioligand spécifiquement fixé sur les récepteurs surrénaliens de l'angiotensine Il.

Regarding `CCCCc1nn(CC(F)(F)F)c(OC(=O)N(C)C)c1Cc1ccc(-c2ccccc2-c2nn[nH]n2)cc1` [Exemple 80, (Trifluoro-2,2,2 éthyl)-1 n-Butyl-3 [(tétrazolyl-5)-2'biphényl-yl-4] méthyl-4 (N,N-diméthyl carbamoyl) oxy-5 pyrazole], the “% de déplacement du ligand marqué” value (competitor 1E-5 M, 10 µM) is reported as 69% and the “% de déplacement du ligand marqué” value (competitor 1E-7 M, 0.1 µM) turned out to be 48%.
For `CCCCc1nn(C)c(OC(=O)N(C)C)c1Cc1ccc(-c2ccccc2-c2nn[nH]n2)cc1` [Exemple 82, Méthyl-1 n-Butyl-3 [(tétrazolyl-5)-2' biphényl-yl-4] méthyl-4 (N,N-diméthyl carbamoyl) oxy-5 pyrazole], the “% de déplacement du ligand marqué” value is, setting by setting: (competitor 1E-5 M, 10 µM) 71%; (competitor 1E-7 M, 0.1 µM) 47%.
For `CCCc1nn(CC(F)(F)F)c(OCC(=O)OCC)c1Cc1ccc(-c2ccccc2-c2nn[nH]n2)cc1` [Exemple 84, ((Trifluoro-2,2,2 éthyl)-1 n-Propyl-3 [(tétrazolyl-5)-2' biphényl-yl-4]méthyl-4 pyrazol-yl-5] oxy acétate d'éthyle] the same measures were 65% and 51%.
Take `CCCc1nn(C)c(OC(=O)N(C)C)c1Cc1ccc(-c2ccccc2-c2nn[nH]n2)cc1` [Exemple 86, Méthyl-1 n-Propyl-3 [(tétrazolyl-5)-2' biphényl-yl-4] méthyl-4 (N,N-diméthyl carbamoyl) oxy-5 pyrazole]: the “% de déplacement du ligand marqué” value is reported as 58% (competitor 1E-5 M, 10 µM) and 41% (competitor 1E-7 M, 0.1 µM).
For `CCCc1nn(C)c(OCCO)c1Cc1ccc(-c2ccccc2-c2nn[nH]n2)cc1` [Exemple 88, [Méthyl-1 n-Propyl-3 [(tétrazolyl-5)-2'biphényl-yl-4]méthyl-4 pyrazol-yl-5]oxy-2 éthanol] the same measures were 60% and 38%.
For the compound `CCCCc1nn(C)c(OCC(=O)OCC)c1Cc1ccc(-c2ccccc2-c2nn[nH]n2)cc1` [Exemple 90, [Méthyl-1 n-Butyl-3 [(tétrazolyl-5)-2'blphényl-yl-4]méthyl-4 pyrazol-yl-5] oxy acétate d'éthyle], the “% de déplacement du ligand marqué” value reads like this: (competitor 1E-5 M, 10 µM) 64%; (competitor 1E-7 M, 0.1 µM) 40%.
With `CCCc1nn(CC(F)(F)F)c(OCCO)c1Cc1ccc(-c2ccccc2-c2nn[nH]n2)cc1` [Exemple 92, [(trifluoro-2,2,2 éthyl)-1 n-Propyl-3 [(tétrazolyl-5)-2'biphényl-yl-4]méthyl-4 pyrazol-yl-5] oxy-2 éthanol], the “% de déplacement du ligand marqué” value by setting is: (competitor 1E-5 M, 10 µM) 75%; (competitor 1E-7 M, 0.1 µM) 70%.
For `CCCc1nn(C)c(COC)c1Cc1ccc(NC(=O)c2ccccc2S(=O)(=O)O)cc1` [Exemple 107, Acide [(Méthyl-1 n-propyl-3 méthoxy méthyl-5 pyrazol-yl-4)méthylphényl-yl-4] amino carbonyl-2 benzène sulfonlque] the same measures were 83% and 62%.
For `CCCc1n[nH]c(COC)c1Cc1ccc(NC(=O)c2ccccc2S(=O)(=O)O)cc1` [Exemple 108, Acide [(n-propyl-3 méthoxy méthyl-5 pyrazol-yl-4)méthylphényl-yl-4] amino carbonyl-2 benzène sulfonique], the “% de déplacement du ligand marqué” value (competitor 1E-5 M, 10 µM) came to 86% and the “% de déplacement du ligand marqué” value (competitor 1E-7 M, 0.1 µM) stood at 19%.
For `CCCc1nn(C)c(CO)c1Cc1ccc(NC(=O)c2ccccc2S(=O)(=O)O)cc1` [Exemple 115, Acide [(méthyl-1 n-propyl-3 hydroxy méthyl-5 pyrazol-yl-4)méthylphényl-yl-4] amino carbonyl-2 benzène sulfonique] the same measures were 80% and 57%.
The corresponding values for `CCCc1n[nH]c(CO)c1Cc1ccc(NC(=O)c2ccccc2S(=O)(=O)O)cc1` [Exemple 116, Acide ((n-Propyl-3 hydroxy méthyl-5 pyrazol-yl-4)méthylphényl-yl-4] amino carbonyl-2 benzène sulfonique] are 82% and 12%.
